Measurements taken from publication PMC11555678, “Improved Broad Spectrum Antifungal Drug Synergies with Cryptomycin, a Cdc50-Inspired Antifungal Peptide” (ACS Infectious Diseases, 2024).
Values after ≈ are worked out from the molar mass of the structure shown. Where two headings read alike, the source gives them in different places.

Assays:
[1] = system: C. glabrata FKS1-S629P; assay: microbe, parasite or virus in culture; format: cell-based, Candida glabrata; details: Nakaseomyces glabratus, FKS1S629P, 48 h
Outline: (§1)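 Testing follows the CLSI M27 protocol for yeasts: test compounds are diluted 2-fold serially in RPMI1640, and washed overnight cells are added at 5000 cfu/mL before 2 days' incubation at 37 °C.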

[2] = system: C. glabrata 2001; assay: microbe, parasite or virus in culture; format: cell-based, Candida glabrata; details: Nakaseomyces glabratus, 2001; compound alone; RPMI1640, 37 °C, 48 h; read-out: MIC
Outline: as §1

[3] = system: C. glabrata FKS2-S663P; assay: microbe, parasite or virus in culture; format: cell-based, Candida glabrata; details: Nakaseomyces glabratus, FKS2S663P, 48 h
Outline: as §1

[4] = system: C. albicans SC5413; format: cell-based, Candida albicans; details: RPMI1640, 37 °C, 48 h; for MIC of antifungal in combination with KKOO: azole MICs unclear (intermediate phenotype); for MIC of antifungal in combination with KKOO-NH2: azole MICs could not be determined (intermediate phenotype)
Procedure: (§2) All microdilution assays with fungi were carried out in accordance with CLSI protocols from M27 for yeasts and M38 for filamentous fungi, respectively, unless otherwise specified.[64],[65] Briefly, 96-well plates were charged with RPMI1640 media, with operating volume in the first column, 200 μL, and half operating volume, 100 μL, in the remaining wells. Drug stock solution in DMSO was aliquoted into the first well in each row. Half of the volume in the dosed well was serially diluted 2-fold until column 11. Column 11 was used as the negative growth control, and column 12 was used as the positive growth control. ON yeast cultures in YPD were washed twice in DD-H2O, resuspended in PBS, and adjusted to 5000 cfu/mL in RPMI. The 96-well plate was inoculated with 100 μL aliquots of cell suspension per well. Plates were incubated at 37 °C for 2 days.
(§3) To assess drug synergy, the initial media charged to the plate contained the peptide at twice the final operating concentration; the remaining processing steps were identical to the MIC experiment. Upon addition of 100 μL of inoculant, the final operating concentration was achieved. Control MIC plates were prepared alongside drug synergy plates to account for the day-to-day variability in any individual MIC. FIC index is computed using eq 1. All MIC assays and drug synergy assays were completed with two technical replicates per 96-well plate and a minimum of two biological replicates per drug combination. If a difference in MIC between the two technical replicates on the plate were observed, only the higher concentration was reported as the MIC to reduce the possibility of type 1 error (false positive) [drawing 1] 1

[5] = system: C. albicans SC5413; assay: microbe, parasite or virus in culture; format: cell-based, Candida albicans; details: Candida albicans, SC5413; compound alone; RPMI1640, 37 °C, 48 h; read-out: MIC
Outline: as §1

[6] = system: A. fumigatus AF293; assay: Drug synergy (MIC in peptide-supplemented media); format: cell-based, Aspergillus fumigatus; details: RPMI1640, 37 °C, 48 h, CAS: paradoxical growth; for MIC of antifungal in combination with KKOO: MIC = <20% growth; for MIC of antifungal in combination with KKOO-NH2: MIC = well with <20% growth
Procedure: as §2, §3

[7] = system: C. auris B11245; assay: microbe, parasite or virus in culture; format: cell-based, Candida auris; details: Candidozyma auris, B11245; compound alone; RPMI1640, 37 °C, 48 h; * = paradoxical growth observed (CAS); read-out: MIC
Procedure: as §2

[8] = system: C. auris B11245; format: cell-based, Candida auris; details: RPMI1640, 37 °C, 48 h, CAS: paradoxical growth; for MIC of antifungal in combination with KKOO: MIC = <20% growth; for MIC of antifungal in combination with KKOO-NH2: MIC = well with <20% growth
Procedure: as §2, §3

[9] = system: A. fumigatus AF293; assay: microbe, parasite or virus in culture; format: cell-based, Aspergillus fumigatus; details: Aspergillus fumigatus, AF293; compound alone; RPMI1640, 37 °C, 48 h; * = paradoxical growth observed (CAS); read-out: MIC
Procedure: as §2

[10] = system: C. glabrata 2001; format: cell-based, Candida glabrata; details: RPMI1640, 37 °C, 48 h
Procedure: as §2, §3

[11] = system: Cn MRL862; format: cell-based, Cryptococcus neoformans; details: RPMI1640, 37 °C, 48 h
Procedure: as §2, §3

[12] = system: C. neoformans crm1Δ; assay: microbe, parasite or virus in culture; format: cell-based, Cryptococcus neoformans; details: Cryptococcus neoformans, 48 h
Outline: as §1

[13] = system: C. neoformans apt4Δ; assay: microbe, parasite or virus in culture; format: cell-based, Cryptococcus neoformans; details: Cryptococcus neoformans, 48 h
Outline: as §1

[14] = system: C. neoformans H99; assay: microbe, parasite or virus in culture; format: cell-based, Cryptococcus neoformans; details: Cryptococcus neoformans, H99; compound alone; RPMI1640, 37 °C, 48 h; read-out: MIC
Outline: as §1

[15] = system: C. neoformans Crm1^OE; assay: microbe, parasite or virus in culture; format: cell-based, Cryptococcus neoformans; details: Cryptococcus neoformans, 48 h
Outline: as §1

[16] = system: C. neoformans cdc50Δ; assay: microbe, parasite or virus in culture; format: cell-based, Cryptococcus neoformans; details: Cryptococcus neoformans, 48 h
Outline: as §1

[17] = system: C. neoformans apt2Δ; assay: microbe, parasite or virus in culture; format: cell-based, Cryptococcus neoformans; details: Cryptococcus neoformans, 48 h
Outline: as §1

[18] = system: C. neoformans apt1Δ; assay: microbe, parasite or virus in culture; format: cell-based, Cryptococcus neoformans; details: Cryptococcus neoformans, 48 h
Outline: as §1

[19] = system: C. neoformans MRL862; assay: microbe, parasite or virus in culture; format: cell-based, Cryptococcus neoformans; details: Cryptococcus neoformans, MRL862, 48 h
Outline: as §1

[20] = system: C. neoformans apt3Δ; assay: microbe, parasite or virus in culture; format: cell-based, Cryptococcus neoformans; details: Cryptococcus neoformans, 48 h
Outline: as §1

Work on C[C@@H]1[C@H](O)[C@@H](C)/C=C/C=C/C=C/C=C/C=C/C=C/C=C/[C@H](O[C@@H]2O[C@H](C)[C@@H](O)[C@H](N)[C@@H]2O)C[C@@H]2O[C@](O)(C[C@@H](O)C[C@@H](O)[C@H](O)CC[C@@H](O)C[C@@H](O)CC(=O)O[C@H]1C)C[C@H](O)[C@H]2C(=O)O [AMB, amphotericin B] yielded an MIC [1] of 1 µg/mL (≈ 1.08 µM), an MIC [2] of 1 µg/mL (≈ 1.08 µM) and an MIC [3] of 1 µg/mL (≈ 1.08 µM). The “MIC of antifungal in combination with KKOO” value ([4]; +0 μg/mL KKOO (control)) was 1 µg/mL, the “MIC of antifungal in combination with KKOO-NH2” value (“MIC … with KKOO-NH2” for short) ([4]; +0 μg/mL KKOO-NH2 (control)) was 1 µg/mL and the “MIC … with KKOO-NH2” value ([4]; +1 μg/mL KKOO-NH2) was 0.5 µg/mL. The “MIC of antifungal in combination with KKOO” value ([4]; +1 μg/mL KKOO) was 0.5 µg/mL, the “MIC … with KKOO-NH2” value ([4]; +2 μg/mL KKOO-NH2) was 0.25 µg/mL and the “MIC of antifungal in combination with KKOO” value ([4]; +2 μg/mL KKOO) was 0.25 µg/mL. For the same molecule, the “MIC … with KKOO-NH2” value ([4]; +4 μg/mL KKOO-NH2) was 0.25 µg/mL, the “MIC of antifungal in combination with KKOO” value ([4]; +4 μg/mL KKOO) was 0.125 µg/mL and the “MIC of antifungal in combination with KKOO” value ([4]; +8 μg/mL KKOO) was 0.125 µg/mL. The MIC [5] was 1 µg/mL (≈ 1.08 µM), the “MIC of antifungal in combination with KKOO” value ([6]; +0 μg/mL KKOO (control)) was 1 µg/mL and the “MIC … with KKOO-NH2” value ([6]; +0 μg/mL KKOO-NH2 (control)) was 1 µg/mL. For the same molecule, the “MIC … with KKOO-NH2” value ([6]; +1 μg/mL KKOO-NH2) was 0.5 µg/mL, the “MIC of antifungal in combination with KKOO” value ([6]; +1 μg/mL KKOO) was 0.25 µg/mL and the “MIC … with KKOO-NH2” value ([6]; +2 μg/mL KKOO-NH2) was 0.25 µg/mL. For the same molecule, the “MIC of antifungal in combination with KKOO” value ([6]; +2 μg/mL KKOO) was 0.25 µg/mL, the “MIC … with KKOO-NH2” value ([6]; +4 μg/mL KKOO-NH2) was 0.5 µg/mL and the “MIC of antifungal in combination with KKOO” value ([6]; +4 μg/mL KKOO) was 0.25 µg/mL. The “MIC … with KKOO-NH2” value ([6]; +8 μg/mL KKOO-NH2) was 0.5 µg/mL, the MIC [7] was 1 µg/mL (≈ 1.08 µM) and the “MIC of antifungal in combination with KKOO” value ([8]; +0 μg/mL KKOO (control)) was 1 µg/mL. For the same molecule, the “MIC … with KKOO-NH2” value ([8]; +0 μg/mL KKOO-NH2 (control)) was 1 µg/mL, the “MIC … with KKOO-NH2” value ([8]; +1 μg/mL KKOO-NH2) was 0.5 µg/mL and the “MIC of antifungal in combination with KKOO” value ([8]; +1 μg/mL KKOO) was 0.5 µg/mL. For the same molecule, the “MIC … with KKOO-NH2” value ([8]; +2 μg/mL KKOO-NH2) was 0.5 µg/mL, the “MIC of antifungal in combination with KKOO” value ([8]; +2 μg/mL KKOO) was 0.5 µg/mL and the “MIC … with KKOO-NH2” value ([8]; +4 μg/mL KKOO-NH2) was 0.25 µg/mL. For the same molecule, the “MIC of antifungal in combination with KKOO” value ([8]; +4 μg/mL KKOO) was 0.25 µg/mL, the MIC [9] was 1 µg/mL (≈ 1.08 µM) and the “MIC of antifungal in combination with KKOO” value ([10]; +0 μg/mL KKOO (control)) was 1 µg/mL. For the same molecule, the “MIC … with KKOO-NH2” value ([10]; +0 μg/mL KKOO-NH2 (control)) was 1 µg/mL, the “MIC … with KKOO-NH2” value ([10]; +1 μg/mL KKOO-NH2) was 0.5 µg/mL and the “MIC of antifungal in combination with KKOO” value ([10]; +1 μg/mL KKOO) was 0.5 µg/mL. The “MIC … with KKOO-NH2” value ([10]; +2 μg/mL KKOO-NH2) was 0.25 µg/mL, the “MIC of antifungal in combination with KKOO” value ([10]; +2 μg/mL KKOO) was 0.25 µg/mL and the “MIC … with KKOO-NH2” value ([10]; +4 μg/mL KKOO-NH2) was 0.25 µg/mL. For the same molecule, the “MIC of antifungal in combination with KKOO” value ([10]; +4 μg/mL KKOO) was 0.25 µg/mL, the “MIC of antifungal in combination with KKOO” value ([10]; +8 μg/mL KKOO) was 0.125 µg/mL and the “MIC of antifungal in combination with KKOO” value ([11]; +0 μg/mL KKOO (control)) was 0.25 µg/mL. For the same molecule, the “MIC … with KKOO-NH2” value ([11]; +0 μg/mL KKOO-NH2 (control)) was 0.25 µg/mL, the “MIC … with KKOO-NH2” value ([11]; +1 μg/mL KKOO-NH2) was 0.125 µg/mL and the “MIC of antifungal in combination with KKOO” value ([11]; +1 μg/mL KKOO) was 0.125 µg/mL. For the same molecule, the “MIC … with KKOO-NH2” value ([11]; +2 μg/mL KKOO-NH2) was 0.031 µg/mL, the “MIC of antifungal in combination with KKOO” value ([11]; +2 μg/mL KKOO) was 0.031 µg/mL and the “MIC … with KKOO-NH2” value ([11]; +4 μg/mL KKOO-NH2) was 0.016 µg/mL. The “MIC of antifungal in combination with KKOO” value ([11]; +4 μg/mL KKOO) was 0.016 µg/mL, the MIC [12] was 0.5 µg/mL (≈ 0.541 µM) and the MIC [13] was 0.25 µg/mL (≈ 0.271 µM). It also gave an MIC [14] of 0.5 µg/mL (≈ 0.541 µM), an MIC [15] of 0.5 µg/mL (≈ 0.541 µM) and an MIC [16] of 0.5 µg/mL (≈ 0.541 µM). The MIC [17] was 0.25 µg/mL (≈ 0.271 µM), the MIC [18] was 0.5 µg/mL (≈ 0.541 µM) and the MIC [19] was 0.125 µg/mL (≈ 0.135 µM). For the same molecule, the MIC [20] was 0.5 µg/mL (≈ 0.541 µM).
